Some test systems named below: HCT-116 colon; SW-620 colon; U251 CNS; HCC-2998 colon; UO-31 renal; T-47D breast; SF-295 CNS; A549 NSCLC; M14 melanoma; SK-MEL-28 melanoma; MOLT-4 leukemia; OVCAR-5 ovarian; A498 renal.
Common to all, as to test: DTP human tumour cell line panel, 48 h

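Step 1: Grow cells in 96-well plates. Step 2: Expose to compound for 48 hours at 5 concentrations. Step 3: Interpolate endpoints linearly; if unreached, use highest concentration. TGI is the concentration that stops growth completely.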

Turning to `C/C(=N\O)c1ccc(OCc2cc(C(F)(F)F)cc(C(F)(F)F)c2)cc1`, the concentration for total growth inhibition (TGI) in the test on HCT-116 colon is > 100 µM; with SW-620 colon, > 100 µM; in the test on U251 CNS, > 100 µM; in the test with HCC-2998 colon, 98.4 µM; in the test on UO-31 renal, > 100 µM; in the test with T-47D breast, > 100 µM. The TGI with SF-295 CNS is > 100 µM; in the test on A549 NSCLC it was > 100 µM; in the test on M14 melanoma, > 100 µM; in the test on SK-MEL-28 melanoma, > 100 µM; in the test on MOLT-4 leukemia, 68.5 µM; in the test on OVCAR-5 ovarian, > 100 µM. The total growth inhibition concentration (TGI) in the test with A498 renal is > 100 µM.

For `Cc1[nH]c2ncn3[nH]c(=S)nc3c2c1Cc1ccccc1`, the TGI with HCT-116 colon, in the test with SW-620 colon, in the test on U251 CNS, in the test with HCC-2998 colon, in the test on UO-31 renal and in the test with T-47D breast was > 100 µM in each case. In addition, the TGI in the test on SF-295 CNS, in the test with A549 NSCLC, in the test on M14 melanoma, in the test with SK-MEL-28 melanoma, with MOLT-4 leukemia and with OVCAR-5 ovarian was > 100 µM each time. The TGI in the test on A498 renal was > 100 µM.

In the case of `O=C(O)CCC(NC(=O)c1ccc(Oc2nc3ccccc3nc2C(=O)O)cc1)C(=O)O` (configuration not stated), the TGI in the test with HCT-116 colon, with SW-620 colon, with U251 CNS, in the test with HCC-2998 colon, with UO-31 renal and in the test on T-47D breast was > 100 µM throughout. The TGI in the test with SF-295 CNS, in the test with A549 NSCLC, with M14 melanoma, with SK-MEL-28 melanoma, in the test with MOLT-4 leukemia and in the test on OVCAR-5 ovarian was > 100 µM throughout. For the same compound, in the test with A498 renal, the TGI was > 100 µM.

Regarding `COc1ccccc1NC1Oc2cc3c(cc2C(c2cc(OC)c(OC)c(OC)c2)C1C)OCO3` (configuration not stated), the TGI is > 33.1 µM in the test on HCT-116 colon; > 100 µM in the test on SW-620 colon; 51.2 µM in the test on U251 CNS; 7.93 µM with HCC-2998 colon; 43.8 µM in the test on UO-31 renal; > 100 µM with T-47D breast. Moreover, the TGI with SF-295 CNS is 2.99 µM; in the test on A549 NSCLC, > 100 µM; in the test on M14 melanoma, > 100 µM; with SK-MEL-28 melanoma, > 100 µM; in the test with MOLT-4 leukemia, 33 µM; in the test with OVCAR-5 ovarian, > 100 µM. The TGI in the test on A498 renal is > 30 µM.

As to `COCN1C(=O)[C@@H]2C[C@@H](O)CN2C(=O)c2ccccc21`, the TGI with HCT-116 colon, in the test with SW-620 colon, in the test with U251 CNS, in the test on HCC-2998 colon, in the test with UO-31 renal and with T-47D breast was > 100 µM in each case. The TGI in the test on SF-295 CNS, in the test on A549 NSCLC, in the test with M14 melanoma, in the test with SK-MEL-28 melanoma, in the test on MOLT-4 leukemia and with OVCAR-5 ovarian was > 100 µM each time. Besides, the TGI with A498 renal was > 100 µM.

For the compound `O=C(N/C(=C\c1ccccc1)c1nc2ccccc2c(=O)o1)c1ccccc1`, the TGI in the test on HCT-116 colon is > 100 µM; in the test on SW-620 colon it was > 100 µM; with U251 CNS it was > 83.3 µM; in the test on HCC-2998 colon, > 100 µM; in the test on UO-31 renal it was 97.3 µM; in the test with T-47D breast, > 100 µM. For the same compound, the TGI with SF-295 CNS, in the test on A549 NSCLC, in the test on M14 melanoma, with SK-MEL-28 melanoma, in the test with MOLT-4 leukemia and with OVCAR-5 ovarian was > 100 µM throughout. Further, in the test on A498 renal, the total growth inhibition concentration (TGI) is > 100 µM.

`CC(=O)Nc1ccc(S(=O)(=O)c2nnc(NC(C)=O)s2)cc1`: the TGI in the test on HCT-116 colon, with SW-620 colon, with U251 CNS, in the test on HCC-2998 colon, with UO-31 renal and in the test on T-47D breast was > 100 µM each time. The TGI in the test with SF-295 CNS, in the test on A549 NSCLC, with M14 melanoma, with SK-MEL-28 melanoma, in the test on MOLT-4 leukemia and in the test on OVCAR-5 ovarian was > 100 µM throughout. The TGI with A498 renal is > 100 µM.

Consider `O=C(NCCCCCCCCNC(=O)Nc1cccc2ccccc12)Nc1cccc2ccccc12`, for which the TGI in the test on HCT-116 colon was > 100 µM; in the test on SW-620 colon, 47.3 µM; in the test on U251 CNS it was 8.49 µM; with HCC-2998 colon it was > 100 µM; in the test with UO-31 renal, 47.5 µM; in the test on T-47D breast, > 100 µM. Also, the TGI with SF-295 CNS, in the test on A549 NSCLC, with M14 melanoma, in the test with SK-MEL-28 melanoma, with MOLT-4 leukemia and with OVCAR-5 ovarian was > 100 µM throughout. Moreover, in the test with A498 renal, the TGI is 34.7 µM.

For the compound `CCOC(=O)C1CCCc2sc(N)c(C#N)c21` (configuration not stated), the TGI with HCT-116 colon, in the test on SW-620 colon, in the test on U251 CNS, in the test on HCC-2998 colon, in the test on UO-31 renal and in the test with T-47D breast was > 100 µM in each case. Moreover, the TGI with A549 NSCLC, in the test with M14 melanoma, in the test with SK-MEL-28 melanoma, in the test on MOLT-4 leukemia, in the test with OVCAR-5 ovarian and in the test on A498 renal was > 100 µM in each case.

Consider `Cc1cccc2c(N)c3cccc(C(=O)NCC[N+](C)(C)Cc4ccccc4[N+](=O)[O-])c3nc12`, for which the TGI with HCT-116 colon is > 100 µM; in the test with SW-620 colon it was > 53 µM; in the test on U251 CNS, > 27.6 µM; in the test on HCC-2998 colon, > 25.9 µM; in the test with UO-31 renal it was > 28.3 µM; in the test on T-47D breast, > 100 µM. Besides, the TGI in the test on SF-295 CNS was > 50.1 µM; in the test on A549 NSCLC, > 54.5 µM; in the test on M14 melanoma, > 40.3 µM; with SK-MEL-28 melanoma it was > 71.1 µM; in the test with MOLT-4 leukemia it was 9.34 µM; with OVCAR-5 ovarian it was 60.2 µM. Besides, the TGI in the test with A498 renal was > 29.3 µM.

Turning to `NCCCN(CCCCN(CCCN)Cc1ccccc1)Cc1ccccc1`, the TGI in the test with HCT-116 colon was > 100 µM; with SW-620 colon, > 100 µM; in the test on U251 CNS it was > 100 µM; with HCC-2998 colon, 22.7 µM; in the test with UO-31 renal it was > 100 µM; in the test on T-47D breast, > 100 µM. Also, the TGI in the test on SF-295 CNS was > 100 µM; in the test on A549 NSCLC, > 100 µM; with M14 melanoma, > 100 µM; in the test with SK-MEL-28 melanoma, > 100 µM; in the test on MOLT-4 leukemia, 46 µM; in the test on OVCAR-5 ovarian, 37.8 µM. Besides, in the test on A498 renal, the TGI was > 100 µM.

As a reminder, the TGI is the concentration at which net growth stops. Read a high TGI as less potent growth arrest.

(Values after PubChem BioAssay (NCI).)
